This note sets out measurements from ChEMBL document CHEMBL1201862, “PubChem BioAssay data set” (2004).

The structures appear in SMILES notation.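 The compound was tested at five concentrations on cells cultured in 96-well plates, with a 48-hour exposure period. GI50 is the concentration that inhibits growth by half.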 Calls of active or inactive are those of the source. Cut-off read from the data, not from the text of the source: active = GI50 up to about 1.1 µM and inactive = higher.

Among the test systems are DU-145; HCC 2998; HCT-116; Hs-578T; M14; MDA-MB-231; MOLT-4; Malme-3M; NCI-H23; NCI-H460; NCI-H522; OVCAR-3; OVCAR-4; OVCAR-5; SF-268; SK-OV-3; SN12C; SNB-75; SW-620; U-251.
Assay in all cases: growth of human tumour cells (NCI), 48 h

In the case of `NC(=O)C(Nc1c(Cl)cccc1Cl)c1cc2cc(Br)ccc2nc1Cl` (stereo not given), the GI50 was > 100 µM (inactive) with DU-145; 44.8 µM (inactive) in the assay on HCC 2998; 41.9 µM (inactive) in the assay on HCT-116; 85.3 µM (inactive) in the assay with Hs-578T; 33 µM (inactive) in the assay on M14; 44.1 µM (inactive) with MDA-MB-231. The GI50 was 20.7 µM (inactive) in the assay on MOLT-4; > 100 µM (inactive) in the assay with Malme-3M; 44.6 µM (inactive) in the assay on NCI-H23; 90.8 µM (inactive) in the assay with NCI-H460; 25.9 µM (inactive) in the assay with NCI-H522; 52.8 µM (inactive) in the assay on OVCAR-3. The GI50 in the assay with OVCAR-4 was 46.3 µM (inactive); in the assay on OVCAR-5 it was > 100 µM (inactive); with SF-268, 49.8 µM (inactive); with SK-OV-3 it was > 100 µM (inactive); in the assay with SN12C it was 63.1 µM (inactive); with SNB-75, > 100 µM (inactive). The GI50 with SW-620 is 37.6 µM (inactive).
Take `Oc1ccccc1-c1n[nH]c(-c2ccccc2O)n1`: the GI50 in the assay on DU-145 is 8.13 µM (inactive); in the assay with HCC 2998 it was 3.9 µM (inactive); in the assay on HCT-116, 1.32 µM (inactive); with Hs-578T it was > 66.1 µM (inactive); with M14, 2.38 µM (inactive); with MDA-MB-231 it was 1.44 µM (inactive). For the same compound, the GI50 in the assay with MOLT-4 is 1.24 µM (inactive); in the assay on Malme-3M, 2.84 µM (inactive); in the assay on NCI-H23 it was 1.71 µM (inactive); with NCI-H460, 0.573 µM (active); in the assay with NCI-H522, 1.64 µM (inactive); in the assay with OVCAR-3 it was 0.28 µM (active). The GI50 in the assay with OVCAR-4 was 2.36 µM (inactive); in the assay on OVCAR-5, 7.11 µM (inactive); in the assay on SF-268, 3.05 µM (inactive); in the assay with SK-OV-3, 3.15 µM (inactive); in the assay with SN12C, 2.17 µM (inactive); in the assay on SNB-75, > 26.1 µM (inactive). The figures for the GI50 with SW-620 and with U-251 were 2.55 µM (inactive) and 3.25 µM (inactive), respectively.
With `Cc1ccc(S(=O)(=O)NNC(=O)Nc2cccc(C(F)(F)F)c2)cc1`, the GI50 in the assay with DU-145 is > 100 µM (inactive); in the assay on HCC 2998, > 100 µM (inactive); in the assay with HCT-116, 97.1 µM (inactive); in the assay with Hs-578T, > 100 µM (inactive); in the assay with M14, > 100 µM (inactive); in the assay with MDA-MB-231, > 100 µM (inactive). The GI50 in the assay on MOLT-4 is > 100 µM (inactive); with Malme-3M, > 100 µM (inactive); with NCI-H23, > 100 µM (inactive); in the assay with NCI-H460, > 100 µM (inactive); in the assay with NCI-H522, 38.4 µM (inactive); in the assay with OVCAR-4, 0.0653 µM (active). Besides, the GI50 in the assay with OVCAR-5 is > 100 µM (inactive); with SF-268 it was > 100 µM (inactive); with SK-OV-3, > 100 µM (inactive); with SN12C, > 100 µM (inactive); with SNB-75 it was 0.0284 µM (active); in the assay on SW-620, > 100 µM (inactive). In addition, the GI50 in the assay on U-251 is 96.8 µM (inactive).
For the compound `C/C=C/OC1C(C2COC(C)(C)O2)OC2OC(C)(C)OC21` (stereo not given), the GI50 in the assay with DU-145, with HCC 2998, in the assay on HCT-116, in the assay with Hs-578T, in the assay with M14 and with MDA-MB-231 was > 100 µM (inactive) each time. Moreover, the GI50 in the assay with MOLT-4, in the assay on Malme-3M, in the assay on NCI-H23, in the assay with NCI-H460, in the assay on NCI-H522 and in the assay with OVCAR-3 was > 100 µM (inactive) each time. Moreover, the GI50 in the assay on OVCAR-4, with OVCAR-5, in the assay on SF-268, in the assay on SK-OV-3, in the assay on SNB-75 and with SW-620 was > 100 µM (inactive) throughout. Also, the GI50 in the assay on U-251 was > 100 µM (inactive).
`COc1ccc2c(c1)CCc1c-2n(CCN(C)C)c2ccc(OC)cc12`: the GI50 is 33.9 µM (inactive) with DU-145; 3.09 µM (inactive) in the assay on HCC 2998; 5.33 µM (inactive) with HCT-116; 21.4 µM (inactive) with Hs-578T; 3.6 µM (inactive) with M14; 11.2 µM (inactive) in the assay on MDA-MB-231. Further, the GI50 in the assay on MOLT-4 was 10.2 µM (inactive); in the assay with Malme-3M, 19.7 µM (inactive); in the assay on NCI-H23 it was 16.3 µM (inactive); in the assay on NCI-H460, 30.4 µM (inactive); in the assay with NCI-H522, 10 µM (inactive); with OVCAR-3, 31 µM (inactive). Also, the GI50 was 25.4 µM (inactive) in the assay with OVCAR-4; 16.8 µM (inactive) with OVCAR-5; 22.6 µM (inactive) with SF-268; 25.9 µM (inactive) with SK-OV-3; 12.5 µM (inactive) in the assay with SN12C; 21.2 µM (inactive) in the assay with SNB-75. In addition, the results for the GI50 in the assay with SW-620 and in the assay with U-251 were 5.37 µM (inactive) and 12.1 µM (inactive), respectively.
As for `CC1=CC(=O)c2ccccc2C1=O` [MENADIONE], the GI50 is 15.9 µM (inactive) in the assay with DU-145; 17 µM (inactive) in the assay with HCC 2998; 2 µM (inactive) in the assay on HCT-116; 10.7 µM (inactive) in the assay on Hs-578T; 5.66 µM (inactive) with M14; 5.06 µM (inactive) in the assay with MDA-MB-231. The GI50 with MOLT-4 was 1.77 µM (inactive); in the assay with Malme-3M it was 4.76 µM (inactive); in the assay on NCI-H23, 7.06 µM (inactive); in the assay on NCI-H460, 11.5 µM (inactive); with NCI-H522 it was 5.06 µM (inactive); in the assay with OVCAR-3 it was 11.1 µM (inactive). Moreover, the GI50 with OVCAR-4 was 3.87 µM (inactive); in the assay on OVCAR-5, 11.8 µM (inactive); in the assay with SF-268 it was 7.52 µM (inactive); with SK-OV-3, 13 µM (inactive); in the assay on SN12C it was 12.4 µM (inactive); with SNB-75 it was 10.2 µM (inactive). Besides, the GI50 in the assay on SW-620 was 2.14 µM (inactive); with U-251, 13.4 µM (inactive).
In the case of `Cc1nc2ccccc2nc1-c1ccc(/N=[N+](\[O-])c2ccc(-c3nc4ccccc4nc3C)cc2)cc1`, the GI50 with DU-145 was > 94.4 µM (inactive); in the assay on HCC 2998 it was > 100 µM (inactive); in the assay with HCT-116, > 79.8 µM (inactive); in the assay with Hs-578T it was 27.5 µM (inactive); in the assay with M14, > 96.2 µM (inactive); with MDA-MB-231, 24.2 µM (inactive). For the same compound, the GI50 in the assay with MOLT-4 was > 100 µM (inactive); with Malme-3M, 42.4 µM (inactive); with NCI-H23, > 83.4 µM (inactive); with NCI-H460, > 100 µM (inactive); with NCI-H522, > 63.4 µM (inactive); in the assay on OVCAR-3, > 100 µM (inactive). Besides, the GI50 was > 100 µM (inactive) in the assay with OVCAR-4; > 100 µM (inactive) with OVCAR-5; 36.6 µM (inactive) with SF-268; 30.8 µM (inactive) in the assay on SK-OV-3; > 92.7 µM (inactive) in the assay on SN12C; 21 µM (inactive) in the assay on SNB-75. Moreover, the results for the GI50 with SW-620 and in the assay with U-251 were > 100 µM (inactive) and 27.5 µM (inactive), respectively.
Take `CC(=O)OCCOCCN1CCN(C2=C(Cl)C(=O)c3c(O)ccc(O)c3C2=O)CC1`: the GI50 with DU-145 was 1.88 µM (inactive); in the assay on HCC 2998 it was 2.37 µM (inactive); with HCT-116, 0.305 µM (active); in the assay on Hs-578T it was 3.1 µM (inactive); with M14, 0.458 µM (active); in the assay on MDA-MB-231, 0.397 µM (active). Moreover, the GI50 in the assay on MOLT-4 was 0.165 µM (active); with Malme-3M, 0.318 µM (active); with NCI-H23, 0.684 µM (active); in the assay on NCI-H460, 4.9 µM (inactive); in the assay with NCI-H522 it was 0.265 µM (active); in the assay on OVCAR-3 it was 0.723 µM (active). In addition, the GI50 is 0.627 µM (active) with OVCAR-4; 1.59 µM (inactive) in the assay with OVCAR-5; 1.86 µM (inactive) with SF-268; 3.66 µM (inactive) in the assay with SK-OV-3; 0.767 µM (active) in the assay on SN12C; 2.06 µM (inactive) in the assay on SNB-75. Also, the GI50 with SW-620 is 0.179 µM (active); in the assay with U-251 it was 2.13 µM (inactive).
As for `CCOC(=O)/C=C/C1OC(C)(C)OC1/C=C/C(=O)OCC` (stereo not given), the GI50 in the assay on DU-145 is 34.8 µM (inactive); in the assay on HCC 2998, 23.2 µM (inactive); in the assay on HCT-116, 30.8 µM (inactive); in the assay with Hs-578T, 37.8 µM (inactive); in the assay with M14 it was 37.7 µM (inactive); with MDA-MB-231, 39.9 µM (inactive). Further, the GI50 in the assay on MOLT-4 was 28.4 µM (inactive); in the assay with Malme-3M it was 39.8 µM (inactive); in the assay on NCI-H23, 40.6 µM (inactive); in the assay on NCI-H460, 21.2 µM (inactive); in the assay with NCI-H522 it was 22.5 µM (inactive); with OVCAR-4 it was 32.4 µM (inactive). Moreover, the GI50 in the assay on OVCAR-5 was 29.9 µM (inactive); with SF-268, 41.4 µM (inactive); in the assay on SK-OV-3, > 100 µM (inactive); in the assay with SN12C it was 22.6 µM (inactive); in the assay with SNB-75 it was 22.6 µM (inactive); in the assay on SW-620, 19.7 µM (inactive). For the same compound, in the assay on U-251, the GI50 was 41.3 µM (inactive).
On to `CC(=O)OC12c3ccccc3-c3ccccc3C1C1C(=O)OC(=O)C12` (stereo not given), for which the GI50 with DU-145, with HCC 2998, in the assay with Hs-578T, with M14, with MDA-MB-231 and in the assay with MOLT-4 was > 10 µM (inactive) in each case. For the same compound, the GI50 with Malme-3M, with NCI-H23, in the assay on NCI-H460, in the assay with NCI-H522, with OVCAR-3 and in the assay with OVCAR-4 was > 10 µM (inactive) each time. In addition, the GI50 in the assay with OVCAR-5, with SF-268, with SK-OV-3, in the assay with SN12C, with SNB-75 and in the assay with SW-620 was > 10 µM (inactive) throughout. For the same compound, the GI50 in the assay with U-251 was > 10 µM (inactive).
